# Experimental data from patent US20210177862A1, “METHOD FOR TREATING NEUROCOGNITIVE DYSFUNCTION” (Tonix Pharma Holdings Limited, priority 2008, published 2021).
# Columns and labels:
# [1] = tested on: pulmonary sarcoidosis; format: in vivo, human; conditions: prednisone tapered from 40 mg to 25 mg a day
# From the text: (§1) Patient was diagnosed with a medical condition known as pulmonary sarcoidosis in which immune cells (lymphocytes and macrophages) are abnormally activated and accumulate in the lung, progressively destroying the architecture and functional capacity of lung tissue. Treatment is necessary to prevent progression of the disease and loss of more pulmonary functional capacity. Standard treatment is with systemic corticosteroids due to the capacity of corticosteroids for suppressing immune function. Patient was started on prednisone 40 mg by mouth each morning, with a plan to taper the dose by 5 mg every two weeks until at 25 mg a day. After three months the level of response to corticosteroids would be assessed by repeat pulmonary function tests and chest x-ray. If the disease process was responsive to corticosteroids, the treatment would be continued to finish a full year on about 25 mg a day.
# The memory disturbance was profound and sharply contrasted with patient's normal memory function. The “foggy” feeling was present all day long, and was similar to the feeling of having taken a sedating antihistamine like diphenhydramine (Benadryl). Patient found they could only concentrate with much effort, with rapidly developing mental fatigue preventing sustained efforts. […]
# [2] = tested on: corticosteroid-induced cognitive impairment; assay: Case report (Example 1): tianeptine given to a patient with cognitive side effects from prednisone therapy; format: in vivo, human
# From the text: as §1
# The memory disturbance was profound and sharply contrasted with patient's normal memory function. The “foggy” feeling was present all day long, and was similar to the feeling of having taken a sedating antihistamine like diphenhydramine (Benadryl). Patient found they could only concentrate with much effort, with rapidly developing mental fatigue preventing sustained efforts. Examples of memory impairment resulting from the prednisone were much like some of the memory disturbance seen in Alzheimer's dementia in which there is impairment in the process of consolidation of short term memories into long term memories, a process known to depend on intact hippocampal function.
# Patient began tianeptine (Stablon) at 12.5 mg, one pill in the morning. Four days later, patient increased the dose to 12.5 mg twice a day, finally, two days after the prior increase, patient increased the dose to 25 mg each morning and 12.5 mg each evening. In the first several days taking tianeptine, patient noted the “foggy” feeling had gone away.
# Although beginning tianeptine correlated with the rapid improvement in cognitive function, it was uncertain whether the tianeptine was responsible for the improvement.
# There was the alternate possibility that patient was simply adjusting to the corticosteroids, with reduction in the cognitive side effects manifesting over the first several weeks after beginning corticosteroids. Nonetheless, patient continued to take the tianeptine. Also, it seemed possible that prednisone at 40 mg a day had been producing worse side effects than the lower doses of 35 mg, 30 mg, and 25 mg a day patient had tapered down to after starting the tianeptine.
# Patient stopped tianeptine treatment two months later, tapering the dose over three days. Within about 2-3 days after the final dose of tianeptine, patient experienced the gradual emergence of the same cognitive side effects of the corticosteroids that patient had been experiencing in before initial tianeptine treatment including poor memory, extreme difficulty concentrating and sustaining mental effort, and the general “foggy” feeling once again pervading. This continued up for two weeks when patient restarted tianeptine treatment. […] Patient has continued on tianeptine 25 mg each morning and 12.5 mg each evening since then.
# [3] = patient on prednisone, first several days taking tianeptine
smiles,measurement,setting,value
C[C@]12C=CC(=O)C=C1CC[C@@H]1[C@@H]2C(=O)C[C@@]2(C)[C@H]1CC[C@]2(O)C(=O)CO [prednisone],follow-up pulmonary function tests,[1],indicated improvement
"CN1c2ccccc2C(NCCCCCCC(=O)O)c2ccc(Cl)cc2S1(=O)=O (stereo not drawn) [tianeptine, 7-[(3-chloro-6,11-dihydro-6-methyl-dibenzo[c,f][1,2]thiazepin-11-yl)amino] heptanoic acid S,S-dioxide]",time frame of effect after initiation of treatment,[2]; mitigation of corticosteroid cognitive side effects,24 to 72 h
same,effect of tianeptine in mitigating the side effects of the corticosteroids,"[2]; off/on tianeptine episode, 25 mg each morning and 12.5 mg each evening",large effect
same,ability to concentrate,[2]; [3],appeared to normalize
same,episodic memory,[2]; [3],significantly improved
same,"""foggy"" feeling","[2]; patient on prednisone, first several days taking tianeptine 12.5 mg up to 25 mg morning + 12.5 mg evening, oral",had gone away
same,time after restarting tianeptine to definite improvement,"[2]; restart after two weeks off tianeptine, on prednisone",≤ 24 h
same,cognitive function after restarting tianeptine,"[2]; three days after restart, on prednisone",pretty much returned to normal baseline
same,time after final dose of tianeptine to gradual emergence of the same cognitive side effects of the corticosteroids,"[2]; tianeptine stopped (tapered over three days), prednisone 25 mg a day continued",2 to 3 days
